Data published in patent US20060264362A1, “Method of modulating smooth muscle cell functioning by modulating sphingosine kinase mediated signalling” (Medvet Science Pty. Ltd., priority 2003, published 2006).
“Also recorded” adds a separate entry of the source.

Key:
resistance arteries [1] = test: SNP (NO)-induced dilations in preconstricted resistance arteries; format: cell-based, hamsters; details: for preconstriction level (diameter): 1 μmol/L S1P or 0.3 μmol/L NE
Source text: (§1) The care of the animals and the experimental procedures were in accordance with German animal protection laws. The preparation of the vessels and the technique of calcium (fura 2) and diameter measurements were previously described (Bolz et al., 1999, supra; Bolz S S, Fisslthaler B, Pieperhoff S et al., FASEB J. 2000;14:255-260). Briefly, RA (maximal outer diameter 180-250 μm) from gracilis muscle of female hamsters were cannulated with micropipettes and studied at 45 mmHg transmural pressure. Fura 2 was alternatingly excited at 340 or 380 nm. The ratio F340nm/F380nm at 510 nm was calculated after subtraction of the background fluorescence (obtained after fura 2-quenching with 8 mmol/L MnCl2). Diameters were simultaneously recorded by videomicroscopy at wavelengths>610 nm to avoid interference with fura 2-measurements.
Additionally, dose-response curves for SNP were obtained in arteries preconstricted by 0.3 μmmol/L NE under control conditions, in the presence of the Rho kinase inhibitor Y27632 (1 μmol/L) or in N19RhoA-transfected arteries.
(§2) Dilations are expressed as “% of maximum dilation”=[(diaVD−diaNE)/(diamax−diaNE)]×100, with diaVD and diaNE representing steady state diameters 2 min after administration of […] and diamax being the maximal diameter obtained in Ca^2+-free 1 mmol/L EGTA-containing MOPS buffer.

[2] = tested on: depolarized resistance arteries; test: Apparent Ca2+-sensitivity of depolarized resistance arteries (120 mmol/L K+, Ca2+ex 0-3 mmol/L); format: cell-based, hamsters; details: for effect on NO (SNP)-induced Ca^2+-desensitization: 10 μmol/L SNP, ODQ 1 μmol/L, calyculin A 120 nmol/L, S1P 10 nmol/L or RhoA^Ala-188 transfection
Source text: as §1
To transfect plasmids containing C3 transferase or the respective mutated RhoA sequences (N19RhoA, RhoA^Ala-188) into VSMCs, arteries were incubated for 18-21 h in a artery culture system (Bolz et al., 2000, supra) with culture medium containing antibiotics, the transfectant Effectene® (16 μl/ml) and 5 μg of the respective plasmid. Unspecific effects of the transfection procedure were assessed by comparing vascular responses of non-transfected RA and arteries transfected with green fluorescent protein (GFP).
The apparent Ca^2+-sensitivity of the arteries was assessed by stepwise increasing the extracellular Ca^2+ concentration (Ca^2+, 0-3 mmol/L) around the arteries kept in depolarizing solution (120 mmol/L K^+). Depolarization-dependent opening of voltage-gated calcium channels allowed increases in Ca^2+ ex to be reproducibly followed by increases in VSMC [Ca^2+]i (Bolz et al., 2000, supra). The Ca^2+-sensitivity was assessed under control conditions, in the presence of SNP and in the combined presence of SNP and the respective modulating substance or protein (ODQ, calyculin A, S1P, RhoA^Ala-188).

[3] = tested on: isolated resistance arteries; test: Resting tone in isolated, transfected resistance arteries; format: cell-based, syrian hamsters; details: 10 nmol/L
Source text: The preparation of the vessels, the technique of calcium and diameter measurements (Bolz, S. S., de Wit, C., Pohl, U. (1999) Br J Pharmacol 128:124-134) as well as the artery culture and transfection method (Bolz, S. S., Pieperhoff, S., de Wit, C. et al. (2000) Am J Physiol Heart Circ Physiol 279:H1434-H1439) were previously described in more detail. […]
After termination of the culture period resistance arteries were washed with MOPS-buffered salt solution and transferred to an inverted microscope. […] In all 116 arteries included in the study, smooth muscle and endothelial function was assessed by testing all resistance arteries for their constrictor response to norepinephrine (NE 0.3 μmol/L) and their dilator response to acetylcholine (ACh, 1 μmol/L). […]
Tone was calculated as % of maximal diameter [tone(% of diamax)=((diamax−diarest)/diamax)×100] that was determined at the end of every experiment in Ca^2+-free solution under stimulation with 1 μmol/L ACh.

MYPT1 = test: Translocation of MLCP myosin-binding subunit MYPT1 (immunofluorescence, western blot); format: cell-based, hamster
Protocol: (§3) Arteries were fixed with 3.7% formaldehyde, permeabilized with 0.3% Triton X-100, blocked with 1% BSA and incubated with the primary antibody (MLCP: rabbit anti-mouse, 1:200, Covance; RhoA: mouse monoclonal, 1:200, Santa Cruz Biotechnology). FITC-labelled goat anti-rabbit or donkey anti-mouse (1:200, each) were used as secondary antibodies. Images were obtained using a Zeiss LSM410 confocal microscope equipped with a Kr/Ar laser and a 40×/1.2 W water immersion objective.
Tissue samples of hamster aorta were quick-frozen in liquid nitrogen and homogenized. Cytosolic and particulate fractions were separated by centrifugation of the homogenate at 100.000 g (Beckman Coulter, Optima Max-E). Pellets were resuspended in lysis buffer plus 1% Triton-X 100. Protein-matched samples were electrophoresed by SDS-PAGE (7%), transferred to nitrocellulose membranes (Amersham), and subjected to immunostaining using a polyclonal primary antibody (rabbit anti-mouse, 1:500). An HRP-labelled secondary antibody (goat anti-rabbit, 1:10000, Santa Cruz) was used with ECLplus (Amersham) to visualize the signal.

RhoA = RhoA translocation (immunostaining); format: cell-based, hamsters; details: 10 nmol/L S1P, 2 min
Protocol: as §3

[4] = tested on: isolated resistance arteries; test: Pressure-induced myogenic response (reversal of initial distension), 45 to 110 mmHg; format: cell-based, syrian hamsters
Source text: The preparation of the vessels, the technique of calcium and diameter measurements (Bolz, S. S., de Wit, C., Pohl, U. (1999) Br J Pharmacol 128:124-134) as well as the artery culture and transfection method (Bolz, S. S., Pieperhoff, S., de Wit, C. et al. (2000) Am J Physiol Heart Circ Physiol 279:H1434-H1439) were previously described in more detail. Briefly, segments of small resistance arteries (maximal diameter 213±3 μm, n+116) were excised from the gracilis muscle of female syrian hamsters, cannulated with glass micropipettes and perfused with culture medium at a transmural pressure of 45 mmHg. for selective transfection of smooth muscle cells, 60 μl/mL transfection reagent (Effectene, Qiagen, Germany) and 5 μg of the respective DNA plasmid were added to the organ bath for 20-22 h.
(§4) After termination of the culture period resistance arteries were washed with MOPS-buffered salt solution and transferred to an inverted microscope. Incubation with fura 2 (2 h at 37° C.) from the abluminal side allowed selective determination of smooth muscle Ca^2+ within the vascular wall. Simultaneous measurements of smooth muscle intracellular Ca^2+ and diameter were performed as described previously (Bolz, S. S., de Wit, C., Pohl, U. (1999) supra). In all 116 arteries included in the study, smooth muscle and endothelial function was assessed by testing all resistance arteries for their constrictor response to norepinephrine (NE 0.3 μmol/L) and their dilator response to acetylcholine (ACh, 1 μmol/L). […] Measurements were performed at 37° C.
Myogenic responses were described as % reversal of initial distension (RID) calculated as RID=((diadistended−diatime)/(diadistended−diarest))×100, with diatime being the actual diameter of the artery at a given time point after increase in transmural pressure.
(§5) To compare Ca^2+i and diameter changes over time after application of pressure, a non-linear regression analysis was employed. Briefly, the goodness of the fit to a Gompertz function was calculated for every individual curve at first and then for pooled data sets.

resistance arteries [5] = test: S1P-induced vasoconstriction of resistance arteries; format: cell-based, hamsters; details: for effect on S1P-induced constrictions: S1P <1 μmol/L
Source text: as §1
The technique to transfect intact C3 transferase protein using Trans LT was previously described (Bolz et al., 2000, supra).
Changes in diameter and [Ca^2+]i were continuously recorded in 70 vessels from 41 animals. All vessels studied developed spontaneous tone (9.6±1% of maximal diameter). The viability of each vessel was assessed by its constriction to NE (0.3 μmol/L) and a dilation>80% in response to 1 μmol/L ACh.

smooth muscle Ca^2+ = test: Pressure-induced increases in smooth muscle Ca2+ (fura 2); format: cell-based, syrian hamsters; details: inhibition of RhoA/Rho kinase pathway
Protocol: as §4, §5

resistance arteries [6] = test: Ca2+-dependent dilations induced by ACh or NS1619; format: cell-based, hamsters
Source text: as §1, §2

[7] = S1P 0.001 μmol/L plus named inhibitor
[8] = S1P 0.01 μmol/L plus named inhibitor
[9] = S1P 0.1 μmol/L plus named inhibitor
[10] = S1P 1 μmol/L plus named inhibitor

Compound: NC[C@H](O)c1ccc(O)c(O)c1 [NE, Norepinephrine]
- preconstriction level (diameter) (resistance arteries [1]): 128±2 μm

Compound: O=c1onc2cnc3ccccc3n12 [ODQ]
- effect on NO (SNP)-induced Ca^2+-desensitization [2]: blocked; also recorded: completely reversed

Compound: CCCCCCCCCCCCC/C=C/[C@@H](O)[C@@H](N)COP(=O)(O)O [S1P, sphingosine-1-phosphate]
- constriction induced by S1P itself [3]: no significant constrictions
- translocation of MYPT1 to the smooth muscle cell plasmamembrane (MYPT1; S1P, 2 min): induced a translocation
- RhoA localisation after stimulation (RhoA): translocated to the membrane; also recorded: translocation to the membrane
- myogenic response with exogenous S1P ([4]; 10 nmol/L S1P): 144±11 % RID
- S1P-induced vasoconstriction, Control (resistance arteries [5]; S1P 0.001 μmol/L): −0.2 ± 0.4 % of diamax
- S1P-induced vasoconstriction, Control (resistance arteries [5]; S1P 0.01 μmol/L): −7.7 ± 2.4 % of diamax
- S1P-induced vasoconstriction, Control (resistance arteries [5]; S1P 0.1 μmol/L): −27.0 ± 3.4 % of diamax
- S1P-induced vasoconstriction, Control (resistance arteries [5]; S1P 1 μmol/L): −45.0 ± 2.0 % of diamax
- effect on NO (SNP)-induced Ca^2+-desensitization [2]: abolished; also recorded: blocked
- effect of S1P per se on Ca^2+-sensitivity ([2]; S1P 10 nmol/L, Ca^2+ex 0.25-0.75 mmol/L): increased the Ca^2+-sensitivity only in a medium concentration range
- preconstriction level (diameter) (resistance arteries [1]): 130±10 μm
- reduction of SNP-induced dilations after preconstriction with S1P vs NE (resistance arteries [1]; SNP 1 μmol/L, preconstriction 1 μmol/L S1P vs 0.3 μmol/L NE): 64±8%

Compound: C[C@@H](N)[C@H]1CC[C@H](C(=O)Nc2ccncc2)CC1 [Y27632]
- S1P-induced MYPT1 translocation after RhoA/Rho kinase inhibition (MYPT1; N19RhoA-transfected or Y27632 (1 μmol/L)-pretreated arteries): absent
- S1P-augmented myogenic response after blocker ([4]; 10 nmol/L S1P plus Rho kinase inhibitor): 3±1 % RID
- myogenic response, reversal of initial distension (RID) ([4]; pressure 45 to 110 mmHg, steady state after 4 min): 1±2 % RID
- S1P-induced vasoconstriction after inhibition of RhoA or Rho kinase (resistance arteries [5]; [7]): 0.1 ± 0.4 % of diamax
- S1P-induced vasoconstriction after inhibition of RhoA or Rho kinase (resistance arteries [5]; [8]): −0.4 ± 0.2 % of diamax
- S1P-induced vasoconstriction after inhibition of RhoA or Rho kinase (resistance arteries [5]; [9]): −3.4 ± 1.8 % of diamax
- S1P-induced vasoconstriction after inhibition of RhoA or Rho kinase (resistance arteries [5]; [10]): −20.0 ± 7.2 % of diamax
- effect on S1P-induced constrictions (resistance arteries [5]): abolished
- pressure-induced increases in Ca^2+ (smooth muscle Ca^2+): 19±3%
- effect on NO-induced dilations (resistance arteries [1]; NE 0.3 μmol/L-preconstricted, Y27632 1 μmol/L or N19RhoA overexpression): significantly augmented
- diameter at NE-induced tone (resistance arteries [1]; NE 0.3 μmol/L, Y27632 1 μmol/L): 115±5 μm
- resting diameter (resistance arteries [1]; Y27632 1 μmol/L): 195±18 μm

Compound: COC[C@@H]([C@H](O)[C@H](O)C(=O)NCC[C@H](C)c1nc(/C=C/C[C@@H]2O[C@]3(C[C@@H](O)[C@@H]2C)O[C@H]([C@H](C[C@H](O)[C@H](C)[C@H](O)[C@H](C)/C=C(C)/C(C)=C/C=C/C(C)=C\C#N)OC)[C@H](OP(=O)(O)O)C3(C)C)co1)N(C)C [calyculin A]
- effect on NO (SNP)-induced Ca^2+-desensitization [2]: reversed
- effect on NO (SNP)-induced Ca^2+-desensitization ([2]; listed as Calyculin A): almost abolished

Compound: C3 transferase
- S1P-induced vasoconstriction after inhibition of RhoA or Rho kinase (resistance arteries [5]; [7]): 0.7 ± 0.3 % of diamax
- S1P-induced vasoconstriction after inhibition of RhoA or Rho kinase (resistance arteries [5]; [8]): 0.5 ± 0.6 % of diamax
- S1P-induced vasoconstriction after inhibition of RhoA or Rho kinase (resistance arteries [5]; [9]): −2.8 ± 0.7 % of diamax
- S1P-induced vasoconstriction after inhibition of RhoA or Rho kinase (resistance arteries [5]; [10]): −18.1 ± 2.9 % of diamax
- effect on S1P-induced constrictions (resistance arteries [5]): abolished
- Ca^2+/diameter curve (Ca^2+-sensitivity of the contractile apparatus) ([2]; C3 transferase-transfected arteries): significantly shifted to the right; also recorded: significantly desensitized

Compound: charybdotoxin
- effect on dilations by ACh (+L-NA/indomethacin) and NS1619 (resistance arteries [6]): abolished
